Data: patent US4849409A, “Diels-alder adduct from streptazoline and naphthoquinones and its oxidation products, which have cytotoxic and antimicrobial activity and which act against protozoa” (Hoechst Aktiengesellschaft, priority 1986, dated 1989)
Values after ≈ are worked out from the molar mass of the structure shown. Like-named read-outs stand apart in the source and are kept apart here.

Assays:
L1210 leukemia cells = experiment: cells; format: cell-based, mouse; conditions: for IC50: Mus musculus
Experimental: The cytotoxic action of the compounds can be established in various test systems such as, for example, in the soft agar colony test on mouse leukemia cells in vitro.
Formation of colonies of L1210 leukemia cells in soft agar:
In this test, substances having cytostatic activity bring about a reduction in the observed number of colonies compared with an untreated control. The details of the test procedure are as follows:
500 L1210 leukemia cells per plate are incubated with various concentrations of the compound of the formula II, obtained as in Example 3, as test substance at 37° C. for 1 hour. The cells are then washed twice with McCoy 5A medium and finally, after addition of 0.3% agar, poured into Petri dishes. Controls are incubated merely with fresh medium. In addition, in place of the incubation for 1 hour, various concentrations of the test substance are admixed to the upper agar layer, in order thus to acheive continuous exposure of the cells throughout the incubation time. After the agar has solidified, the plates are incubated in an incubator at 37° C. for 7 days (5% CO2, 95% relative humidity). The number of resultant colonies with a diameter >60μ is then counted. The results are expressed as the quotient of the number of colonies on treated agar plates and the number of colonies on the untreated control. The IC50 was obtained, as a measure of the activity of the test substance, from the dose-effect curve thus obtained. The comparison substance used in this test is the cytostatic adriamycin.

[1] = in words; cited from earlier work
leukemia cells = conditions: cited from earlier work
[2] = L1210, 168 h, continuous exposure, substance in upper agar layer, 7 days at 37° C., read-out: Stem cell assay cont. IC50
[3] = L1210, incubation for 1 hour at 37° C., then washed, 7 days in agar, read-out: Stem cell assay 1 h IC50

Row | IC50 (L1210 leukemia cells; [2]) [µg/mL] | IC50 (L1210 leukemia cells; [3]) [µg/mL] | SMILES | cytotoxicity (assessment) (L1210 leukemia cells) | antibiotic action [1] | cytotoxic action (leukemia cells)
1 | 0.02 (≈ 0.0368 µM) | 0.04 (≈ 0.0736 µM) | COc1cccc2c1C(=O)c1c(O)c3c(c(O)c1C2=O)C[C@@](O)(C(=O)CO)C[C@@H]3O[C@H]1C[C@H](N)[C@H](O)[C@H](C)O1 [Adriamycin] | – | – | –
2 | 0.04 (≈ 0.101 µM) | 0.26 (≈ 0.658 µM) | CC1C2=C(C(=O)c3c(O)ccc(O)c3C2=O)[C@@H]2CCN3C(=O)O[C@@H]4[C@@H](O)C1=C2[C@@H]43 (stereo partly shown) [Test substance] | cytotoxicity comparable to that of adriamycin | – | –

Row | SMILES | IC50 (L1210 leukemia cells; [2]) [µg/mL] | IC50 (L1210 leukemia cells; [3]) [µg/mL] | cytotoxicity (assessment) (L1210 leukemia cells) | antibiotic action [1] | cytotoxic action (leukemia cells)
3 | CC=C1C2=CCCN3C(=O)OC(C1O)C23 (stereo not shown) [Streptazoline] | 10 (≈ 48.3 µM) | 10 (≈ 48.3 µM) | no cytotoxicity worthy of note | only a very weak antibiotic | no cytotoxic action
